From patent US7098199B2 (Sterix Limited, priority 1991, dated 2006)
Like-named read-outs stand apart in the source and are kept apart here. Blank lines part the entries; values can stand above or below the compound they belong to.

Legend:
oestrone sulphatase [1] = molecular target: T1, oestrone sulphatase (Homo sapiens, UniProt P08842); experiment: Oestrone sulphatase inhibition in placental microsomes by flavanoid sulphamates; format: biochemical
T1 sequence (P08842 22-583): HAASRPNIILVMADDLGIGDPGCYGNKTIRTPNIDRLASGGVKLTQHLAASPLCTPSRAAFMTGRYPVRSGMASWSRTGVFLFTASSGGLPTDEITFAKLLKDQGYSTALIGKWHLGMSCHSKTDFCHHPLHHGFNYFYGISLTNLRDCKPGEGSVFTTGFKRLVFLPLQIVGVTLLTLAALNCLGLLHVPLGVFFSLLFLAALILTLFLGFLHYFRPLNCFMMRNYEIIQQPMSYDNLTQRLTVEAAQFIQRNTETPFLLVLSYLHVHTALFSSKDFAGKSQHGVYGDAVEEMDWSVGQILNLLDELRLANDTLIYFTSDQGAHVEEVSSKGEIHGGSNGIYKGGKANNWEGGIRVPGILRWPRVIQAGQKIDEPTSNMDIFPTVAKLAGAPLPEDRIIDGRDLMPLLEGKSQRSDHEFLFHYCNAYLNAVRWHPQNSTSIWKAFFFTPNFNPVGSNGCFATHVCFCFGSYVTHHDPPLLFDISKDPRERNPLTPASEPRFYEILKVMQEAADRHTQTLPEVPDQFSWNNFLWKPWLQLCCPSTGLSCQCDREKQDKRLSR

oestrone sulphatase [2] = molecular target: T1, oestrone sulphatase
Steroid sulphatase [3] = molecular target: T2, Steroid sulphatase (Homo sapiens, UniProt P08842); experiment: Steroid sulphatase activity in placental microsomes; conditions: 10 μM
T2 sequence (P08842 22-583): T1 sequence (P08842 22-583)

Steroid sulphatase [4] = molecular target: T3, Steroid sulphatase (Rattus norvegicus, UniProt P15589); experiment: % inhibition in vivo from a single dose (Example 9); parameters: from tissue; host or cells: tissue of treated animals; tissue not given; conditions: single dose of 10 mg/kg
T3 sequence (P15589 20-577): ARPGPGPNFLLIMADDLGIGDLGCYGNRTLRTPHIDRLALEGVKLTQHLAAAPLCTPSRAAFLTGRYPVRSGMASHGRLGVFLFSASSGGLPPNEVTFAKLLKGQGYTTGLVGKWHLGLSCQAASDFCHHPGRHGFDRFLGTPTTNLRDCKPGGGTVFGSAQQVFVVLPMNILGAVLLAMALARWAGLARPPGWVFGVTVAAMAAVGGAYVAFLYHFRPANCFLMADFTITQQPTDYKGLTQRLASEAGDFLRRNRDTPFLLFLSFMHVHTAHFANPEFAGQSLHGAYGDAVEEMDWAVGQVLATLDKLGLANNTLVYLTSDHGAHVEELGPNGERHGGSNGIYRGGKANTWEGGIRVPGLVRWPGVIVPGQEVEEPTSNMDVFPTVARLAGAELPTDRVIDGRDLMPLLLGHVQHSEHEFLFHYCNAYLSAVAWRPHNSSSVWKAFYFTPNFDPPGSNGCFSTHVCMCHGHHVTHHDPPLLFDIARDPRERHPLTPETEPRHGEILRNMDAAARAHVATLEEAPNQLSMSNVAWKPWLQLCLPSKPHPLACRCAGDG

[5] = molecular target: T4, Steroid sulphatase (Steryl Sulphatase EC3.1.6.2) (Homo sapiens, UniProt P08842); experiment: Steroid sulphatase activity in intact MCF-7 cells; format: cell-based; conditions: for inhibition at 10 µM: MCF7; for Steroid Sulphatase Activity: mean ± 1 S.D.
T4 construct: endogenous in cells; host or cells: MCF-7 human breast cancer cells
T4 sequence (P08842 22-583): T1 sequence (P08842 22-583)
Experimental: Steroid sulphatase is defined as: Steryl Sulphatase EC3.1.6.2.
Steroid sulphatase activity was measured in vitro using intact MCF-7 human breast cancer cells. This hormone dependent cell line is widely used to study the control of human breast cancer cell growth. […] Cells were maintained in Minimal Essential Medium (MEM) (Flow Laboratories, Irvine, Scotland) containing 20 mM HEPES, 5% foetal bovine serum, 2 mM glutamine, nonessential amino acids and 0.075% sodium bicarbonate. Up to 30 replicate 25 cm^2 tissue culture flasks were seeded with approximately 1×10^5 cells/flask using the above medium. Cells were grown to 80% confluency and medium was changed every third day.
Each batch of experiments included incubations of microsomes prepared from a sulphatase-positive human placenta (positive control) and flasks without cells (to assess apparent non-enzymatic hydrolysis of the substrate). The number of cell nuclei per flask was determined using a Coulter Counter after treating the cell monolayers with Zaponin. One flask in each batch was used to assess cell membrane status and viability using the Trypan Blue exclusion method (Phillips, H. J. (1973) In: Tissue culture and applications,[eds: Kruse, D. F. & Patterson, M. K.]; pp. 406–408; Academic Press, New York).
Unpaired Student's t-test was used to test the statistical significance of results.
An identical experimental protocol to that described in Example 4 was used to generate results for oestrone-3-N,N-diimethylsulphamate except that incubations contained oestrone-3-N,N-dimethylsulphaiate (5 concentrations: 0; 0.001 μM; 0.01 μM; 0.1 μM; 1 μM) in place of oestrone-3-sulphamate.

Steroid sulphatase [6] = molecular target: T3, Steroid sulphatase; experiment: Steroid sulphatase activity in liver microsome preparations from rats treated subcutaneously; format: in vivo; parameters: except that the tissue source was rat liver; from tissue; host or cells: liver of female Wistar rats; conditions: 10 mg/kg/day s.c. for 7 days, rat liver microsomes, mean ± 1 S.D., n = 3
oestrone sulphatase [7] = molecular target: T1, oestrone sulphatase; format: cell-based
[8] = molecular target: T4, Steroid sulphatase (Steryl Sulphatase EC3.1.6.2); experiment: Steroid sulphatase activity in MCF-7 cells pre-incubated with inhibitor and washed; format: cell-based; conditions: pre-treatment 2 hours with 0.1 μM, cells washed 3 times
[9] = concentration tested 1 mM (so in the source)
[10] = concentration tested 10 mM (so in the source)
[11] = concentration tested 25 mM (so in the source)
[12] = concentration tested 50 mM (so in the source)
[13] = concentration tested 100 mM (so in the source)

% INHIBITION Sulphatase (oestrone sulphatase [1]; 1 μM): 8%
% INHIBITION Sulphatase (oestrone sulphatase [1]; 10 μM): 21%
Compound: 5-hydroxy-flavone-7-sulphamate [5-hydroxy flavone-7-sulphamate]

Compound: C=CCc1cc2c(cc1OS(N)(=O)=O)CC[C@@H]1[C@@H]2CC[C@]2(C)C(=O)CC[C@@H]12 [2-allyl EMATE]
% Inhibition (Mean) Placental Microsomes (oestrone sulphatase [2]; [9]): 45.6%
% Inhibition (Mean) Placental Microsomes (oestrone sulphatase [2]; [10]): 65.4%
% Inhibition (Mean) Placental Microsomes (oestrone sulphatase [2]; [11]): 75.3%
% Inhibition (Mean) Placental Microsomes (oestrone sulphatase [2]; [12]): 86.6%
% Inhibition (Mean) Placental Microsomes (oestrone sulphatase [2]; [13]): 89.6%

Compound: COc1cc2c(cc1OS(N)(=O)=O)CC[C@@H]1[C@@H]2CC[C@]2(C)C(=O)CC[C@@H]12 [2-methoxy EMATE]
% Inhibition (Mean) Placental Microsomes (oestrone sulphatase [2]; [10]): 99.0%
% Inhibition (Mean) Placental Microsomes (oestrone sulphatase [2]; [12]): 99.7%
% Inhibition (Mean) Placental Microsomes (oestrone sulphatase [2]; [13]): 99.7%

Compound: CCCc1cc2c(cc1OS(N)(=O)=O)CC[C@@H]1[C@@H]2CC[C@]2(C)C(=O)CC[C@@H]12 [2-n-propyl EMATE]
% Inhibition (Mean) Placental Microsomes (oestrone sulphatase [2]; [9]): 21.9%
% Inhibition (Mean) Placental Microsomes (oestrone sulphatase [2]; [10]): 43.2%
% Inhibition (Mean) Placental Microsomes (oestrone sulphatase [2]; [11]): 47.5%
% Inhibition (Mean) Placental Microsomes (oestrone sulphatase [2]; [12]): 61.1%
% Inhibition (Mean) Placental Microsomes (oestrone sulphatase [2]; [13]): 69.2%

Compound: C[C@]12CC[C@@H]3c4cc([N+](=O)[O-])c(OS(N)(=O)=O)cc4CC[C@H]3[C@@H]1CCC2=O [2-nitro EMATE]
% Inhibition (Mean) Placental Microsomes (oestrone sulphatase [2]; concentration tested 0.05 mM (so in the source)): 44.5%
% Inhibition (Mean) Placental Microsomes (oestrone sulphatase [2]; concentration tested 0.5 mM (so in the source)): 93.9%
% Inhibition (Mean) Placental Microsomes (oestrone sulphatase [2]; concentration tested 5 mM (so in the source)): 99.0%
% Inhibition (Mean) Placental Microsomes (oestrone sulphatase [2]; [12]): 99.4%

Compound: C=CCc1c(OS(N)(=O)=O)ccc2c1CC[C@@H]1[C@@H]2CC[C@]2(C)C(=O)CC[C@@H]12 [4-allyl EMATE]
% Inhibition (Mean) Placental Microsomes (oestrone sulphatase [2]; [9]): 29.1%
% Inhibition (Mean) Placental Microsomes (oestrone sulphatase [2]; [10]): 54.2%
% Inhibition (Mean) Placental Microsomes (oestrone sulphatase [2]; [11]): 59.0%
% Inhibition (Mean) Placental Microsomes (oestrone sulphatase [2]; [12]): 65.1%
% Inhibition (Mean) Placental Microsomes (oestrone sulphatase [2]; [13]): 71.9%

Compound: CCCc1c(OS(N)(=O)=O)ccc2c1CC[C@@H]1[C@@H]2CC[C@]2(C)C(=O)CC[C@@H]12 [4-n-propyl EMATE]
% Inhibition (Mean) Placental Microsomes (oestrone sulphatase [2]; [9]): 13.7%
% Inhibition (Mean) Placental Microsomes (oestrone sulphatase [2]; [10]): 10.2%
% Inhibition (Mean) Placental Microsomes (oestrone sulphatase [2]; [11]): 15.7%
% Inhibition (Mean) Placental Microsomes (oestrone sulphatase [2]; [12]): 16.3%
% Inhibition (Mean) Placental Microsomes (oestrone sulphatase [2]; [13]): 23.7%

Compound: NS(=O)(=O)Oc1ccc(C2CC(=O)c3c(O)cc(O)cc3O2)cc1 (centres unmarked) [5,7-dihydroxy flavanone 4′-sulphamate, 5.7-Dihydroxyflavanone 4′-O-sulphamate]
% INHIBITION Sulphatase (oestrone sulphatase [1]; 0.1 μM): 30.4%
% INHIBITION Sulphatase (oestrone sulphatase [1]; 1 μM): 79.1%
% INHIBITION Sulphatase (oestrone sulphatase [1]; 10 μM): 98.1%
% INHIBITION Sulphatase (oestrone sulphatase [1]; 10 μM, listed as 5,7-dihydroxy flavanone-4′-sulphamate): 98%

% INHIBITION Sulphatase (oestrone sulphatase [1]; 1 μM): 1%
% INHIBITION Sulphatase (oestrone sulphatase [1]; 10 μM): 50.6%
Compound: COc1ccc(-c2coc3cc(OS(N)(=O)=O)cc(O)c3c2=O)cc1 [5-Hydroxy-4′-methoxyisoflavone 7-O-sulphamate]

melting point: > 42 °C (dec.)
% Inhibition in Placental Microsomes at 10 μM (Steroid sulphatase [3]): 40±2%
% Inhibition in vivo from a single dose of 10 mg/kg (Steroid sulphatase [4]): 22±3%
inhibition at 10 µM [5]: 99 ± 2%
Compound: CCCCCCCOc1ccc(OS(N)(=O)=O)cc1 [9a]

% Inhibition in Placental Microsomes at 10 μM (Steroid sulphatase [3]): 40±2%
% Inhibition in vivo from a single dose of 10 mg/kg (Steroid sulphatase [4]): 22±3%
inhibition at 10 µM [5]: 99 ± 2%
Compound: COc1cc(CNC(=O)CCCC/C=C/C(C)C)ccc1OS(N)(=O)=O [9b, (E) Methyl-γ-methyl-6-nonenamide-N-(3-methboxyphenyl4-O-sulphanate)]

% Inhibition in Placental Microsomes at 10 μM (Steroid sulphatase [3]): 40±2%
% Inhibition in vivo from a single dose of 10 mg/kg (Steroid sulphatase [4]): 22±3%
inhibition at 10 µM [5]: 99 ± 2%
Compound: NS(=O)(=O)Oc1ccccc1[N+](=O)[O-] [9c, 2-Nitrophenol-O-sulfamate]

Steroid Sulphatase Activity (Steroid sulphatase [6]; assay substrate DHA-S): 1.71 ± 0.1 nmol/30 min/200 mg protein
Steroid Sulphatase Activity (Steroid sulphatase [6]; assay substrate E1-S): 20.6 ± 0.4 nmol/30 min/200 mg protein
Compound: C[C@]12CC[C@@H]3c4ccc(OS(=O)(=O)O)cc4CC[C@H]3[C@@H]1CCC2=O [E1-S, Oestrone-3-sulphate, reference compound]

Compound: NS(=O)(=O)Oc1ccc(-c2coc3cc(OS(N)(=O)=O)cc(O)c3c2=O)cc1 [Isoflavone 5-hydroxy-4′,7-bissulphamate, 5-Hydroxy Isoflavone4′-O,O-Disulphamate]
% Inhibition MCF-7 Cells (oestrone sulphatase [7]; 0.1 μM): 28%

% Inhibition MCF-7 Cells (oestrone sulphatase [7]; 0.1 μM): 23%
% Inhibition MCF-7 Cells (oestrone sulphatase [7]; 1.0 μM): 83%
% Inhibition MCF-7 Cells (oestrone sulphatase [7]; 10.0 μM): 99%
Compound: NS(=O)(=O)Oc1ccc(-c2coc3cc(O)cc(O)c3c2=O)cc1 [Isoflavone 5.7-dihydroxy-4′-sulphamate, 5,7-Dihydroxy Isoflavone-4′-O-Sulphamate]

% reduction over control (% inhibition) [8]: 18.8%
Steroid Sulphatase Activity ([8]; mean ± 1 S.D., n = 3): 53.1 ± 3.4 fmol/20 hr/10^6 cells
% reduction over control (% inhibition) ([5]; inhibitor 0.001 μM): 17.3%
Steroid Sulphatase Activity ([5]; inhibitor 0.001 μM): 68.33 ± 3.2 fmol/20 hr/10^6 cells
% reduction over control (% inhibition) ([5]; inhibitor 0.01 μM): 44.3%
Steroid Sulphatase Activity ([5]; inhibitor 0.01 μM, n = 3): 46.0 ± 4.9 fmol/20 hr/10^6 cells
% reduction over control (% inhibition) ([5]; inhibitor 0.1 μM): 78.9%
Steroid Sulphatase Activity ([5]; inhibitor 0.1 μM, n = 3): 17.43 ± 4.3 fmol/20 hr/10^6 cells
% reduction over control (% inhibition) ([5]; inhibitor 1 μM): 85.6%
Steroid Sulphatase Activity ([5]; inhibitor 1 μM, n = 3): 11.89 ± 3.7 fmol/20 hr/10^6 cells
Compound: CN(C)S(=O)(=O)Oc1ccc2c(c1)CC[C@@H]1[C@@H]2CC[C@]2(C)C(=O)CC[C@@H]12 [Oestrone-3-N,N-dimethylsulphamate, oestrone-3-N.N-dimethylsulphamate]

% INHIBITION Sulphatase (oestrone sulphatase [1]; 1 μM): 26.8%
% INHIBITION Sulphatase (oestrone sulphatase [1]; 10 μM): 89.5%
Compound: flavone-6-sulphamate

% INHIBITION Sulphatase (oestrone sulphatase [1]; 50 μM): 56.3%
% INHIBITION Sulphatase (oestrone sulphatase [1]; 100 μM): 75.3%
Compound: flavone-7-sulphamate
